# Measured values as given in patent US12233103B2, “Indoleamine 2,3-dioxygenase based immunotherapy” (IO BIOTECH APS, priority 2008, dated 2025).
# How the values were obtained:
# [1] = system: PBL from healthy individuals; assay: IFN-γ ELISPOT after one in vitro peptide stimulation, healthy individuals; type: cell-based, human
# Protocol: (§1) To extend the sensitivity of the enzyme-linked immunospot (ELISPOT) assay, PBL were stimulated once in vitro with peptide prior to analysis^34. At day 0, PBL were thawed and plated in 2 ml/well at a concentration of 2×10^6 cells in 24-well plates (Nunc) in X-vivo medium (BioWhittaker) with 5% heat-inactivated human serum in the presence of 10 μM peptide (GenScript). One day later 40 IU/ml recombinant interleukin-2 (IL-2) (PeproTech) was added to the cultures. The cultured cells were tested in the IFN-γ ELISPOT assay on day 8.
# (§2) The ELISPOT assay was used to quantify peptide epitope-specific INF-γ releasing effector cells as described previously^17. In some experiments PBMC were stimulated once in vitro with peptide prior to analysis as described^(34) to extend the sensitivity of the assay. Briefly, nitrocellulose bottomed 96-well plates (MultiScreen MAIP N45; Millipore) were coated with anti-IFN-γ Ab (1-D1K; Mabtech). The wells were washed, blocked by X-vivo medium and the effector cells were added in duplicates at different cell concentrations, with or without 10 μM peptide. The plates were incubated overnight. The following day, medium was discarded and the wells were washed prior to addition of biotinylated secondary Ab (7-B6-1-Biotin; Mabtech). The plates were incubated at room temperature (RD for 2 h, washed, and Avidin-enzyme conjugate (AP-Avidin; Calbiochem/Invitrogen Life Technologies) was added to each well. Plates were incubated at RT for 1 h and the enzyme substrate NBT/BCIP (Invitrogen Life Technologies) was added to each well and incubated at RT for 5-10 min. Upon the emergence of dark purple spots, the reaction was terminated by washing with tap water. The spots were counted using the ImmunoSpot Series 2.0 Analyzer (CTL Analyzers) and the peptide-specific CTL frequency could be calculated from the numbers of spot-forming cells.
# (§3) Eleven IDO-derived peptides were selected using algorithms based on the main HLA-A2 specific anchor residues and subsequently synthesized^16. […]
# [2] = system: PBL from HLA-A2 positive cancer patients (breast cancer, melanoma, renal cell carcinoma); assay: IFN-γ ELISPOT after one in vitro peptide stimulation, cancer patients; type: cell-based, human; details: HLA-A2 positive late stage cancer patients; PBL stimulated once with peptide in vitro
# Protocol: as §1, §2, §3
# HLA-A2 [3] = biological target: T1, HLA-A2 (Homo sapiens, UniProt P04439, D140Y/D185E/D98H/E176V/E277Q/G131W/G231S/I119V/I121R/I166T/I218V/L300P/L318F/N151K/N90K/P208A/P217A/Q86G/Q94H/R138H/R169H/T345S); assay: Assembly assay for peptide binding to MHC class I molecules; details: recovery of HLA-A2 at 100, 10, 1 and 0.1 μM peptide
# T1 construct: empty HLA-molecules released upon cell lysis, from the TAP-deficient cell line T2; endogenous in cells; host or cells: T2 (TAP-deficient human cell line), cell lysate
# Protocol: The binding affinity of the synthetic peptides (Genscript) to HLA-A2 molecules, metabolically labelled with [35^S]-methionine, was measured in the assembly assay, as described previously^33. The assay is based on peptide-mediated stabilization of empty HLA-molecules released upon cell lysis, from the TAP-deficient cell line T2. Stably folded HLA-molecules were immune-precipitated by using the HLA class-I specific, conformation dependent monoclonal (mAb) W6/32 and separated by isoelectric focusing (IEF) gel electrophoresis. Major histocompatibility complex (MHC) heavy-chain bands were quantified using the ImageGauge Phosphoimager program (FUJI Photo Film, Carrolton, TX). The intensity of the band is directly related to the amount of peptide-bound class I MHC complex recovering during the assay. The recovery of HLA-A2 was measured in presence of 100, 10, 1, and 0.1 μM of the relevant peptide. The C50 value was calculated for each peptide as the peptide concentration sufficient for half maximal stabilization.
# [4] = system: TIL cultures from HLA-A2+ melanoma and head and neck cancer patients; assay: HLA-A2/IDO5 tetramer staining of IL-2 treated TIL cultures; type: cell-based, human; details: tetramer stainings
# Text: (§4) For tetramer stainings, PBL from cancer patients and healthy donors as well as TIL from cancer patients were stimulated once in vitro with peptide, or analysed directly ex vivo. The CD8 cells were isolated from PBL using the Dynal CD8 negative isolation kit (Dynal Biotech) at day 7. The resulting T cell cultures were stained with PE coupled tetramer, followed by antibody staining with the flourochrome-coupled mAbs: CD8-allophycocyanin/APC-Cy7, CD3-FITC, […], CD45RO-FITC, CD45RA-PE-Cy5 and CD28-allophycocyanin (BD Immunocytometry Systems). Tetramer stainings were performed in PBS+2% FCS, for 15 min, RT, in the dark, whereas antibody stainings were performed in PBS+2% FCS, 4° C., in the dark. The MHC tetramer complexes used were: HLA-A2/IDO5 (ALLEIASCL (SEQ ID NO: 20)) and HLA-A2/HIV-1 pol476-484 ([…] (SEQ ID NO: 18)). The samples were analyzed on BD FACS aria, using DIVA software (BD Biosciences).
# CD8+ T cells in PBL = assay: HLA-A2/IDO5 tetramer flow cytometry of PBL; type: cell-based, human; details: for average frequency of IDO reactive cells of total CD8+ T cells: after in vitro stimulation
# Text: as §4
# IDO = assay: Intracellular IDO staining by flow cytometry; type: cell-based, human
# Text: Cancer cell lines and DC were examined for expression of IDO using flow cytometry. After fixation and permeabilization (Cytofix/Cytoperm, BD), cells were stained with mouse anti-IDO antibody (Millipore Corporation) followed by FITC-labeled anti-mouse secondary antibody (DAKO). For all experiments, a negative control only stained with the FITC-coupled secondary antibody was included, to determine the background fluorescence from falsely attached secondary antibodyE and auto-fluorescence. The IDO expression was determined using the staining index defined as MFIpositive−MFIbackground/2×SDbackground where MFI is mean fluorescence intensity. Cells were defined IDO positive if the staining index>1^21.
# HLA-A2 [5] = assay: HLA-A2 expression by flow cytometry; type: cell-based, human; details: CAMA-1+IFN-γ treatment (untreated 43.7)
# Protocol: Cancer cells were examined for HLA-A2 expression using flow cytometry. Cells were stained with a fluorochrome-coupled HLA-A2 mAb (BD Bioscience). For comparison, cells were stained with an isotype matched control. The samples were analyzed on BD FACS aria, using DIVA software (BD Biosciences). Assuming normality, HLA-A2 expression was given by a one-tailed two sampled T-test comparing MFIHLA-A2 and MFIIsotype control, where MFI is the Mean Fluorescence 9 Intensity. For p-values<0.05 (significance level) cells were defined HLA-A2+. The fold of expression was defined as MFIHLA-A2/MFIIsotype control.
substance,measurement,setting,value
FLVSLLVEI (listed as Homo sapiens) [IDO2],spontaneous ELISPOT responses in healthy controls,[1],No spontaneous responses could be detected
same,ELISPOT responses in PBL of cancer patients,[2],ELISPOT responses were detected
VLSKGDGL (VLSKGDAGL; listed as Homo sapiens) [IDO6],spontaneous ELISPOT responses in healthy controls,[1],No spontaneous responses could be detected
same,ELISPOT responses in PBL of cancer patients,[2],ELISPOT responses were detected
ALLEIASCL (listed as Homo sapiens) [IDO5],binding affinity to HLA-A2 compared with the high affinity positive control epitope HIV-1 pol476-484,HLA-A2 [3],bound HLA-A2 even better than the high-affinity control epitope
same,spontaneous ELISPOT responses in healthy controls,[1],No spontaneous responses could be detected
same,analyzed patients with detectable IDO5-specific T cells among TIL,[4],4 of the 5
same,average frequency of IDO reactive cells of total CD8+ T cells,CD8+ T cells in PBL; 7 HLA-A2 positive healthy donors,0.001%
same,average frequency of IDO reactive cells of total CD8+ T cells,CD8+ T cells in PBL; 11 HLA-A2 positive cancer patients,0.03%
same,detection of IDO-reactive T cells in healthy donors,"CD8+ T cells in PBL; tetramer staining, healthy donors",No IDO-reactive T cells could be detected
same,ELISPOT responses in PBL of cancer patients,[2],ELISPOT responses were detected
"IFN-γ: cytokine used to treat cancer cells, 100 U/ml for 2 days",IDO staining index,"IDO; CAMA-1+IFN-γ (untreated CAMA-1 1.3), IDO positive if index>1",1.8
same,MFIIDO/MFIIsotype control,IDO; CAMA-1+IFN-γ treatment (untreated 2.3),3.5
same,expression of IDO in CAMA-1 and MDA-MB-231 after treatment,IDO; both cell lines,increased the expression of IDO
same,"HLA-A2 expression, fold over isotype control",HLA-A2 [5],141.2
